This passage reports Activity results from ChEMBL document CHEMBL2407042, “Investigation of the protein alkylation sites of the STAT3:STAT3 inhibitor Stattic by mass spectrometry” (Bioorg Med Chem Lett, 2013).

For assay [1], the species on record is Homo sapiens. The assay can be described thus: Binding affinity to STAT3 beta (127 to 722) (unknown origin) expressed in Escherichia coli BL21 Rosetta at 50 uM treated for 1 hr prior to trypsin digestion measured after 24 hrs by LC-MS/MS analysis in presence of ammonium bicarbonate and acetonitrile.
The species entered for assay [2] is Homo sapiens. The assay can be described thus: Binding affinity to STAT3 beta (127 to 722) (unknown origin) expressed in Escherichia coli BL21 Rosetta at 50 uM treated for 1 hr prior to trypsin digestion measured after 24 hrs by LC-MS/MS analysis in presence of ammonium bicarbonate and N-octyl-glucoside.
Assay [3] is filed under the species Homo sapiens. Description: Binding affinity to STAT3 beta (127 to 722) (unknown origin) expressed in Escherichia coli BL21 Rosetta at 50 uM treated for 1 hr prior to trypsin digestion measured after 24 hrs by LC-MS/MS analysis in presence of ammonium bicarbonate and guanidium HCl.
For assay [4], the species on record is Homo sapiens. Description: Binding affinity to STAT3 beta (127 to 722) (unknown origin) expressed in Escherichia coli BL21 Rosetta at 50 uM treated for 1 hr prior to trypsin digestion measured after 24 hrs by LC-MS/MS analysis in presence of ammonium bicarbonate.
The species named for assay [5] is Homo sapiens. Description: Binding affinity to STAT3 beta (127 to 722) (unknown origin) expressed in Escherichia coli BL21 Rosetta at 50 uM after 1 hr by mass spectrophotometric analysis.

Each structure is given as a SMILES string. Calls of active or inactive are those of the source. No cut-off for these calls is given here.

Take `O=[N+]([O-])c1ccc2c(c1)S(=O)(=O)C=C2`: the outcome in the assay filed under Homo sapiens [1], in the assay listed under Homo sapiens [2], in the assay listed under Homo sapiens [4] and in the assay filed under Homo sapiens [5] was Active. Besides, in the assay filed under Homo sapiens [3], the outcome was inactive.
